Laboratory results as given in patent US9315465B2, “Photostable AIE luminogens for specific mitochondrial imaging and its method of manufacturing thereof” (THE HONG KONG UNIVERSITY OF SCIENCE AND TECHNOLOGY, priority 2013, dated 2016).

Columns and labels:
[1] = tested on: mitochondria; test: Effect of CCCP on mitochondria (pH, ΔΨm, morphology); format: cell-based
Experimental: Excitation wavelength: 405 nm; emission filter: 449-520 nm; irradiation time: 15.49 sec/scan.
(§1) To test the tolerance of TPE-TPP and MT to the change of mitochondrial ΔΨm, carbonyl cyanide m-chlorophenylhydrazone (CCCP) was used to treat the cells prior to the staining procedure. CCCP is an uncoupler that causes rapid acidification of the mitochondria and dysfunction of ATP synthase resulting in the decrease of the mitochondrial ΔΨm. Upon treatment with 20 μM CCCP, the pH of mitochondria decreased about 0.7 and ΔΨm thus decreased around 40 mV according to the Nernst equation. […] Since the targeting of MT to mitochondria is driven by the huge ΔΨm, the decrease of ΔΨm, will affect the direction and accumulation of cationic MT to mitochondria. It was expected that similar phenomena would be observed for TPE-TPP as it shares a similar working principle.
The high tolerance of TPE-TPP to the decrease of ΔΨm enables the observation of change of mitochondrial morphology induced by CCCP. […] The early stage of apoptosis involves remodeling of mitochondrial cristae and the consequent occurrence of morphological change of mitochondria, which is considered as an irreversible process associated with the collapse of ΔΨm. TPE-TPP has excellent specificity to mitochondria with outstanding photostability and tolerance to microenvironment change, representing a potential candidate of tracking agent for apoptosis studies.

[2] = tested on: mitochondria of CCCP-treated HeLa cells; test: Tolerance of mitochondrial staining to decrease of mitochondrial ΔΨm (CCCP-treated cells); format: cell-based; conditions: HeLa cells treated with 10 μM CCCP prior to staining
Excerpt: Excitation wavelength: 540-580 nm (for MT) and 330-385 nm (for TPE-TPP).
as §1, with “Upon treatment with 20 μM CCCP, the pH of mitochondria decreased about 0.7 and ΔΨm thus decreased around 40 mV according to the Nernst equation.” left out

[3] = tested on: reactive oxygen species (ROS); test: ROS detection with H2DCFDA under UV irradiation; conditions: solution of TPE-IQ 10 μM and H2DCFDA 1 μM, intensity at 521 nm
Experimental: Concentration of TPE-IQ: 10 μM; concentration of H2DCFDA: 1 μM.
(§2) With UV irradiation, the morphology of mitochondria changed gradually, indicating the initiation of the cell apoptosis process. […] To understand the underlying mechanism of TPE-IQ induced cell apoptosis, reactive oxygen species (ROS) detection agent H2DCFDA was utilized. […] This means that TPE-IQ could be utilized as a sensitizer for ROS generation, to induce cell apoptosis. Considering the mitochondria targeting of the probe, TPE-IQ could be used as an apoptosis inducer while enabling observation of the morphology change of the mitochondria at the same time. Besides, the probe may be utilized in phototherapy for selectively killing specific cells, while allowing for the study of how cells communicate when one cell undergoes the apoptosis process.

[4] = tested on: mitochondria of the living HeLa cells; test: Mitochondria staining and co-localization by fluorescence microscopy; format: cell-based
Experimental: TPE-TPP was then assessed for its ability to localize and stain mitochondria in living cells by fluorescence microscope. Cervical cancer HeLa cells were incubated with 5 μM TPE-TPP for 1 h and excess dyes were washed away by buffer solution.
Pearson's correlation coefficient (Rr; from +1 to −1), which indicates the degree of linear dependence between two variables, is used to quantify the overlapping of the staining region between TPE-TPP and MT.
In FIG. 7A, cells were incubated with TPE-TPP for 1 h.
An AIE luminogen targeting mitochondria specifically with red fluorescence emission was also synthesized, i.e., TPE-MitoR, (E)-1-ethyl-3,3-dimethyl-2-(2-(4′(1,2,2-triphenylvinyl)-[1,1′-biphenyl]-4-yl)vinyl)-3H-indol-1-ium hexafluorophosphate. […] TPE-MitoR's ability for tracking mitochondria is evaluated by colocalizing with TPE-TPP (FIG. 14).
In addition, cell fixation is important for sample preserving.

[5] = tested on: HeLa cell; test: UV-irradiation induced mitochondrial morphology change / apoptosis in stained cells; format: cell-based; conditions: HeLa cell stained with TPE-IQ, UV 6 s then 15 min in the dark
Excerpt: (A) 1 s; (B) 2 s; (C) 6 s; (D) 11 s.
as §2

[6] = Excerpt: The TPE core was synthesized simply from a McMurry coupling reaction. TPP was attached through bromination and subsequent reaction with triphenylphosphine.
[7] = Particle size analysis of nanoaggregates; format: physicochemical; conditions: aqueous solution containing 0.1% DMSO, identical condition for cell staining
Excerpt: The DMF solution of TPE-TPP was almost non-emissive while the solid state is strongly luminescent at 466 nm. […] The scheme of synthesis of said TPP-functionalized TPE is as follow: […]

[8] = tested on: HeLa cells; test: Cytotoxicity by MTT assay; format: cell-based; conditions: added to the culture medium
Experimental: Applying an organelle tracker into living sample, the cytotoxicity of the probe, TPE-TPP, was evaluated using the 3-(4,5-dimethyl-2-thiazolyl)-2,5-diphenyltetrazolium bromide (MTT) assay (FIG. 6).

With `N#CC(C#N)=NNc1cccc(Cl)c1` [CCCP, carbonyl cyanide m-chlorophenylhydrazone] the “decrease of pH of mitochondria” value ([1]; 20 μM CCCP) was “about 0.7”, the “decrease of ΔΨm” value ([1]; 20 μM CCCP, according to the Nernst equation) was “around 40 mV” and the “change of mitochondrial morphology” value ([1]; living HeLa cells exposed to CCCP (20 μM), stained with TPE-TPP) was “gradually transformed to small and dispersed fragments”.

With `CN1C(=CC=Cc2n(Cc3ccc(CCl)cc3)c3cc(Cl)c(Cl)cc3[n+]2Cc2ccc(CCl)cc2)C(C)(C)c2ccccc21.[Cl-]` [MT] the “specificity and sensitivity to mitochondria in CCCP-treated cells” value [2] was “no more specificity to mitochondria and the sensitivity became worse”.

For `CCC[n+]1cc2ccc(C(=C(c3ccccc3)c3ccccc3)c3ccccc3)cc2c(-c2ccccc2)c1-c1ccccc1` [TPE-IQ, 3,4-diphenyl-2-propyl-6-(1,2,2-triphenylvinyl)isoquinolin-2-ium tetrafluoroborate], the “H2DCFDA fluorescence (ROS production) with continuous UV irradiation” value [3] was “increased gradually”, the “mitochondria targeting in fixed cells” value ([4]; HeLa cells after 4% paraformaldehyde (PFA) fixation for 50 min) was “could still target to the mitochondria” and the “incubation time sufficient for lighting up the mitochondria” value ([4]; HeLa cells, 200 nM) was 10 min. The “emission from the mitochondria of the cells” value ([4]; HeLa cells, 500 nM, 1 min incubation) was “strong emission” and the “mitochondrial morphology after UV irradiation” value [5] was “changed substantially”.

In the case of `CC[N+]1=C(/C=C/c2ccc(-c3ccc(C(=C(c4ccccc4)c4ccccc4)c4ccccc4)cc3)cc2)C(C)(C)c2ccccc21` [TPE-MitoR, (E)-1-ethyl-3,3-dimethyl-2-(2-(4′(1,2,2-triphenylvinyl)-[1,1′-biphenyl]-4-yl)vinyl)-3H-indol-1-ium hexafluorophosphate], the “ability for tracking mitochondria (colocalization with TPE-TPP)” value ([4]; HeLa cells, 5 μM, 30 min) is reported as “promising result in locating mitochondria”.

With `[Br-].[Br-].c1ccc(C(=C(c2ccccc2)c2ccc(C[P+](c3ccccc3)(c3ccccc3)c3ccccc3)cc2)c2ccc(C[P+](c3ccccc3)(c3ccccc3)c3ccccc3)cc2)cc1` [TPE-TPP, Bis(Triphenylphosphonium) Tetraphenylethene] the “solubility in aqueous solution” value ([6]; aqueous solution) was “relatively poor solubility”, the “solubility in polar solvents” value ([6]; polar solvents such as DMF and DMSO) was “completely soluble” and the “localization of staining in living cells” value ([4]; HeLa cells, 5 μM, 1 h) was “stains specifically the mitochondrial region”. For the same compound, the “staining time sufficient to enter and light up mitochondria” value ([4]; HeLa cells, data not shown) was 15 min, the “Pearson's correlation coefficient (Rr) of overlap with MitoTracker Red FM (MT)” value ([4]; co-staining in living HeLa cells, TPE-TPP 5 μM, MT 50 nM) was 0.96 and the “specificity and sensitivity to mitochondria in CCCP-treated cells” value [2] was “perfectly retained”. For the same compound, the average particle size [7] was 144 nm and the “concentration up to which cell viability is not significantly altered” value [8] was “up to 7.5 μM”.
